Columns and labels:
Assay type in all cases: cell-based, human
[1] = test system: HepG-2; test: MTT anti-proliferative assay, HepG-2; conditions: Homo sapiens, HepG2; for viability at 0.195 µg/mL / cytotoxicity at 0.195 µg/mL: HepG-2, 0.195 ug/ml; for cytotoxicity at 0.195 µg/mL / cytotoxicity at 0.391 µg/mL / cytotoxicity at 0.781 µg/mL / cytotoxicity at 1.563 µg/mL / cytotoxicity at 3.125 µg/mL / cytotoxicity at 6.25 µg/mL / cytotoxicity at 12.5 µg/mL / cytotoxicity at 25 µg/mL: read-out: Toxicity %; for viability at 0.391 µg/mL / cytotoxicity at 0.391 µg/mL: HepG-2, 0.391 ug/ml; for viability at 0.781 µg/mL / cytotoxicity at 0.781 µg/mL: HepG-2, 0.781 ug/ml; for viability at 1.563 µg/mL / cytotoxicity at 1.563 µg/mL: HepG-2, 1.563 ug/ml; for viability at 3.125 µg/mL / cytotoxicity at 3.125 µg/mL: HepG-2, 3.125 ug/ml; for viability at 6.25 µg/mL / cytotoxicity at 6.25 µg/mL: HepG-2, 6.25 ug/ml; for viability at 12.5 µg/mL / cytotoxicity at 12.5 µg/mL: HepG-2, 12.5 ug/ml; for viability at 25 µg/mL / cytotoxicity at 25 µg/mL: HepG-2, 25 ug/ml; for IC50: MTT, HepG-2, read-out: Cytotoxicity against cancer cells IC50 HepG-2
[2] = test system: MCF-7; test: MTT anti-proliferative assay, MCF-7; conditions: Homo sapiens, MCF7; for viability at 0.195 µmol / cytotoxicity at 0.195 µmol: MCF-7, 0.195 umol; for cytotoxicity at 0.195 µmol / cytotoxicity at 0.391 µmol / cytotoxicity at 0.781 µmol / cytotoxicity at 1.563 µmol / cytotoxicity at 3.125 µmol / cytotoxicity at 6.25 µmol / cytotoxicity at 12.5 µmol / cytotoxicity at 25 µmol: read-out: Toxicity %; for viability at 0.391 µmol / cytotoxicity at 0.391 µmol: MCF-7, 0.391 umol; for viability at 0.781 µmol / cytotoxicity at 0.781 µmol: MCF-7, 0.781 umol; for viability at 1.563 µmol / cytotoxicity at 1.563 µmol: MCF-7, 1.563 umol; for viability at 3.125 µmol / cytotoxicity at 3.125 µmol: MCF-7, 3.125 umol; for viability at 6.25 µmol / cytotoxicity at 6.25 µmol: MCF-7, 6.25 umol; for viability at 12.5 µmol / cytotoxicity at 12.5 µmol: MCF-7, 12.5 umol; for viability at 25 µmol / cytotoxicity at 25 µmol: MCF-7, 25 umol; for IC50: MTT, MCF-7, read-out: Cytotoxicity against cancer cells IC50 MCF-7
[3] = test system: caspase-9; test: Caspase-9 expression level in HepG-2 cells; conditions: for Caspase-9 ± SE: HepG-2, at IC50 concentrations, control 11.01; for caspase-9 expression level, fold increase: HepG-2, vs control cells
Protocol: (§1) All synthesized compounds were tested at their cytotoxic concentrations in HepG-2 cells for analysis of gene expression levels of apoptotic markers caspase-3, caspase-9, TNF-α, and IL-6 proteins, and only two active compounds were tested for BAX and Bcl-2 proteins.
(§2) through Flow cytometric analysis.
(§3) Pellets were collected again and incubated with
(§4) Total RNA from vehicle-treated
(§5) (Thermo Scientific, USA).
(§6) All experiments were performed in […]

[4] = test system: caspase-3; test: Caspase-3 expression level in HepG-2 cells; conditions: for Caspase-3 ± SE: HepG-2, at IC50 concentrations, control 0.460; for caspase-3 expression level, fold increase: HepG-2, vs control cells
Protocol: as §1, §2, §3, §4, §5, §6

[5] = test system: K-562; test: MTT anti-proliferative assay, K-562; conditions: Homo sapiens, K562; for viability at 0.195 µmol / cytotoxicity at 0.195 µmol: K-562, 0.195 umol; for cytotoxicity at 0.195 µmol / cytotoxicity at 0.391 µmol / cytotoxicity at 0.781 µmol / cytotoxicity at 1.563 µmol / cytotoxicity at 3.125 µmol / cytotoxicity at 6.25 µmol / cytotoxicity at 12.5 µmol / cytotoxicity at 25 µmol: read-out: Toxicity %; for viability at 0.391 µmol / cytotoxicity at 0.391 µmol: K-562, 0.391 umol; for viability at 0.781 µmol / cytotoxicity at 0.781 µmol: K-562, 0.781 umol; for viability at 1.563 µmol / cytotoxicity at 1.563 µmol: K-562, 1.563 umol; for viability at 3.125 µmol / cytotoxicity at 3.125 µmol: K-562, 3.125 umol; for viability at 6.25 µmol / cytotoxicity at 6.25 µmol: K-562, 6.25 umol; for viability at 12.5 µmol / cytotoxicity at 12.5 µmol: K-562, 12.5 umol; for viability at 25 µmol / cytotoxicity at 25 µmol: K-562, 25 umol; for IC50: MTT, K-562, read-out: Cytotoxicity against cancer cells IC50 K-562
[6] = test system: IL-6R; test: IL-6R level in HepG-2 cells; conditions: control 44.10; for IL-6R ± SE: HepG-2, at IC50 concentrations; for IL-6 ±SE: raw data, HepG2
Protocol: as §1, §2, §3, §4, §5, §6

[7] = test system: TNF-alpha; test: TNF-alpha level in HepG-2 cells; conditions: control 43.48
Protocol: as §1, §2, §3, §4, §5, §6

`O=C(Cn1cnc2cc([N+](=O)[O-])ccc2c1=O)Nc1ccc(Cl)cc1` [9c, N-(4-Chlorophenyl)-2-(7-nitro-4-oxoquinazolin-3(4H)-yl)acetamide] was tested, and the viability at 0.195 µg/mL [1] was 83.4%, the cytotoxicity at 0.195 µg/mL [1] was 16.6% and the viability at 0.391 µg/mL [1] was 70.3%. The cytotoxicity at 0.391 µg/mL [1] was 29.7%, the viability at 0.781 µg/mL [1] was 56.1% and the cytotoxicity at 0.781 µg/mL [1] was 43.9%. For the same compound, the viability at 1.563 µg/mL [1] was 34.4%, the cytotoxicity at 1.563 µg/mL [1] was 65.6% and the viability at 3.125 µg/mL [1] was 16.8%. It also gave a cytotoxicity at 3.125 µg/mL [1] of 83.2%, a viability at 6.25 µg/mL [1] of 11.7% and a cytotoxicity at 6.25 µg/mL [1] of 88.3%. It also gave a viability at 12.5 µg/mL [1] of 7.36%, a cytotoxicity at 12.5 µg/mL [1] of 92.6% and a viability at 25 µg/mL [1] of 6.23%. For the same compound, the cytotoxicity at 25 µg/mL [1] was 93.8%, the IC50 [1] was 1 ± 0.0049 µM and the viability at 0.195 µmol [2] was 91.3%. For the same compound, the cytotoxicity at 0.195 µmol [2] was 8.66%, the viability at 0.391 µmol [2] was 68.1% and the cytotoxicity at 0.391 µmol [2] was 31.9%. It also gave a viability at 0.781 µmol [2] of 43%, a cytotoxicity at 0.781 µmol [2] of 57% and a viability at 1.563 µmol [2] of 27.7%. The cytotoxicity at 1.563 µmol [2] was 72.3%, the viability at 3.125 µmol [2] was 15.2% and the cytotoxicity at 3.125 µmol [2] was 84.8%. It also gave a viability at 6.25 µmol [2] of 11.2%, a cytotoxicity at 6.25 µmol [2] of 88.8% and a viability at 12.5 µmol [2] of 8.44%. It also gave a cytotoxicity at 12.5 µmol [2] of 91.6%, a viability at 25 µmol [2] of 6.82% and a cytotoxicity at 25 µmol [2] of 93.2%. For the same compound, the IC50 [2] was 0.6724 ± 0.0049 µM, the “Caspase-9 ± SE” value [3] was 70.03 ± 0.47 ng/L and the “Caspase-9 ± SE” value ([3]; listed as N2) was 70.03 ng/L. The “caspase-9 expression level, fold increase” value [3] was 6.37 fold, the “Caspase-3 ± SE” value [4] was 1.77 ± 0.08 ng/mL and the “Caspase-3 ± SE” value ([4]; listed as N2) was 1.77 ng/mL. For the same compound, the “caspase-3 expression level, fold increase” value [4] was 3.85 fold, the viability at 0.195 µmol [5] was 80.6% and the cytotoxicity at 0.195 µmol [5] was 19.4%. For the same compound, the viability at 0.391 µmol [5] was 60%, the cytotoxicity at 0.391 µmol [5] was 40% and the viability at 0.781 µmol [5] was 33.6%. For the same compound, the cytotoxicity at 0.781 µmol [5] was 66.4%, the viability at 1.563 µmol [5] was 22.3% and the cytotoxicity at 1.563 µmol [5] was 77.7%. The viability at 3.125 µmol [5] was 11%, the cytotoxicity at 3.125 µmol [5] was 89% and the viability at 6.25 µmol [5] was 8.29%. For the same compound, the cytotoxicity at 6.25 µmol [5] was 91.7%, the viability at 12.5 µmol [5] was 7.43% and the cytotoxicity at 12.5 µmol [5] was 92.6%. The viability at 25 µmol [5] was 7.02%, the cytotoxicity at 25 µmol [5] was 93% and the IC50 [5] was 0.5388 ± 0.0017 µM. For the same compound, the “IL-6R ± SE” value [6] was 11.87 ± 0.80 ng/L, the “IL-6 ±SE” value [6] was 24.59 ng/L and the “TNF-alpha ±SE” value ([7]; HepG-2, at IC50 concentrations) was 16.86 ± 2.39 ng/L. For the same compound, the “TNF-alpha ±SE” value ([7]; raw data, HepG2) was 23.47 ng/L.
Work on `O=C(Cn1cnc2cc([N+](=O)[O-])ccc2c1=O)Nc1ccc(F)c(Cl)c1` [9e, N-(3-Chloro-4-fluorophenyl)-2-(7-nitro-4-oxoquinazolin-3(4H)-yl)acetamide] yielded a viability at 0.195 µg/mL [1] of 87.5%, a cytotoxicity at 0.195 µg/mL [1] of 12.5% and a viability at 0.391 µg/mL [1] of 63.9%. The cytotoxicity at 0.391 µg/mL [1] was 36.1%, the viability at 0.781 µg/mL [1] was 55.2% and the cytotoxicity at 0.781 µg/mL [1] was 44.8%. For the same compound, the viability at 1.563 µg/mL [1] was 49.6%, the cytotoxicity at 1.563 µg/mL [1] was 50.4% and the viability at 3.125 µg/mL [1] was 25.9%. For the same compound, the cytotoxicity at 3.125 µg/mL [1] was 74.1%, the viability at 6.25 µg/mL [1] was 16.3% and the cytotoxicity at 6.25 µg/mL [1] was 83.7%. It also gave a viability at 12.5 µg/mL [1] of 8.39%, a cytotoxicity at 12.5 µg/mL [1] of 91.6% and a viability at 25 µg/mL [1] of 6.85%. For the same compound, the cytotoxicity at 25 µg/mL [1] was 93.2%, the IC50 [1] was 1.51 ± 0.002 µM and the viability at 0.195 µmol [2] was 54.8%. For the same compound, the cytotoxicity at 0.195 µmol [2] was 45.2%, the viability at 0.391 µmol [2] was 29.1% and the cytotoxicity at 0.391 µmol [2] was 70.9%. It also gave a viability at 0.781 µmol [2] of 20.9%, a cytotoxicity at 0.781 µmol [2] of 79.1% and a viability at 1.563 µmol [2] of 13.7%. For the same compound, the cytotoxicity at 1.563 µmol [2] was 86.3%, the viability at 3.125 µmol [2] was 9.89% and the cytotoxicity at 3.125 µmol [2] was 90.1%. For the same compound, the viability at 6.25 µmol [2] was 9.23%, the cytotoxicity at 6.25 µmol [2] was 90.8% and the viability at 12.5 µmol [2] was 8.22%. The cytotoxicity at 12.5 µmol [2] was 91.8%, the viability at 25 µmol [2] was 6.51% and the cytotoxicity at 25 µmol [2] was 93.5%. The IC50 [2] was 0.2314 ± 0.0023 µM, the “Caspase-9 ± SE” value [3] was 25.20 ± 1.27 ng/L and the “Caspase-9 ± SE” value ([3]; listed as N4) was 25.20 ng/L. For the same compound, the “caspase-9 expression level, fold increase” value [3] was 2.29 fold, the “Caspase-3 ± SE” value [4] was 0.77 ± 0.069 ng/mL and the “Caspase-3 ± SE” value ([4]; listed as N4) was 0.77 ng/mL. For the same compound, the “caspase-3 expression level, fold increase” value [4] was 1.6 fold, the viability at 0.195 µmol [5] was 60.6% and the cytotoxicity at 0.195 µmol [5] was 39.4%. For the same compound, the viability at 0.391 µmol [5] was 47%, the cytotoxicity at 0.391 µmol [5] was 53% and the viability at 0.781 µmol [5] was 26.6%. For the same compound, the cytotoxicity at 0.781 µmol [5] was 73.4%, the viability at 1.563 µmol [5] was 19% and the cytotoxicity at 1.563 µmol [5] was 81%. It also gave a viability at 3.125 µmol [5] of 13.7%, a cytotoxicity at 3.125 µmol [5] of 86.3% and a viability at 6.25 µmol [5] of 10.8%. It also gave a cytotoxicity at 6.25 µmol [5] of 89.2%, a viability at 12.5 µmol [5] of 8.13% and a cytotoxicity at 12.5 µmol [5] of 91.9%. For the same compound, the viability at 25 µmol [5] was 6.53%, the cytotoxicity at 25 µmol [5] was 93.5% and the IC50 [5] was 0.3469 ± 0.0029 µM. For the same compound, the “IL-6R ± SE” value [6] was 25.25 ± 0.16 ng/L, the “IL-6 ±SE” value [6] was 11.93 ng/L and the “TNF-alpha ±SE” value ([7]; HepG-2, at IC50 concentrations) was 34.27 ± 1.94 ng/L. The “TNF-alpha ±SE” value ([7]; raw data, HepG2) was 32.07 ng/L.
